Results on two compounds are retold here after patent US12178793B2, “Ophthalmic compositions containing a nitric oxide releasing prostamide” (NICOX SA, priority 2018, dated 2024).

Series [1] can be described thus: Pharmacokinetic evaluation after single ocular instillation, Study 2 (bimatoprost free acid in aqueous humor). The series is classed as in vivo, Dutch Belted Rabbits. The conditions noted are these: bimatoprost free acid in aqueous humor as marker; benzalkonium chloride up to 0.02% w/w. The text has this: Pharmacokinetic Evaluation in Dutch Belted Rabbits after Single Ocular Instillation
The aim of this study was to assess the aqueous humor content of bimatoprost free acid following topical ocular dosing with three different aqueous ophthalmic solutions containing hexanoic acid, 6-(nitrooxy)-, (1S,2E)-3-[(1R,2R,3S,5R)-2-[(2Z)-7-(ethylamino)-7-oxo-2-hepten-1-yl]-3,5-dihydroxycyclopentyl]-1-(2-phenylethyl)-2-propen-1-yl ester (0.042% w/w) in three different vehicles reported in Table 10.
Forty animals were included in the study. They were allocated into four groups of 10 animals/group and were administered with the above reported tested aqueous ophthalmic solutions
All animals included in the study were administered by ocular instillation of both eyes by means of a graduated pipette at a volume of […]. Two animals per formula were sacrificed at 0 h (pre-dose), 1 h, 2 h, 4 h and 8 h, and aqueous humor samples were obtained immediately from both eyes.

The conditions of series [2]: cited from earlier work.
A short description of series [3]: Aqueous solubility of the active ingredient. The conditions noted are these: water, read-out: minimum aqueous solubility. Format: physicochemical. The protocol:
Hexanoic acid, 6-(nitrooxy)-, (1S,2E)-3-[(1R,2R,3S,5R)-2-[(2Z)-7-(ethylamino)-7-oxo-2-hepten-1-yl]-3,5-dihydroxycyclopentyl]-1-(2-phenylethyl)-2-propen-1-yl ester is a viscous oil having a minimum aqueous solubility of 0.02 mg/ml therefore aqueous pharmaceutical compositions of hexanoic acid, 6-(nitrooxy)-, (1S,2E)-3-[(1R,2R,3S,5R)-2-[(2Z)-7-(ethylamino)-7-oxo-2-hepten-1-yl]-3,5-dihydroxycyclopentyl]-1-(2-phenylethyl)-2-propen-1-yl ester must contain solubilizing agents that increase the water solubility of the compound and allow achieving therapeutically active concentrations of the compound.

Series [4] can be described thus: Solubility in aqueous solutions at pH 6.0 containing a solubilizing agent. Format: physicochemical.

Converted amounts (≈) assume the structure as drawn.

Regarding benzalkonium chloride, in series [1], the “effect of the excipient on the ocular penetration of NCX 470” value is recorded as “did not exert any effect”.
As for `CCNC(=O)CCC/C=C\C[C@@H]1[C@@H](/C=C/[C@H](CCc2ccccc2)OC(=O)CCCCCO[N+](=O)[O-])[C@H](O)C[C@@H]1O` [NCX 470, Hexanoic acid, 6-(nitrooxy)-, (1S,2E)-3-[(1R,2R,3S,5R)-2-[(2Z)-7-(ethylamino)-7-oxo-2-hepten-1-yl]-3,5-dihydroxycyclopentyl]-1-(2-phenylethyl)-2-propen-1-yl ester], the “intra ocular pressure (IOP)-lowering” value in series [2] (Impagnatiello et al., Invest Ophthalmol Vis Sci. 2015) was “effective”. The “IOP-lowering efficacy versus bimatoprost” value in series [2] (vs equimolar doses of bimatoprost, vehicle 0.25% Tween 80, 0.02% BAK, 2% glycerine and 0.1% EDTA, Br J Pharmacol 2018) was “greater IOP-lowering efficacy”. In addition, the figures for the solubility in series [3], in series [4] (aqueous solution at pH 6.0 containing 0.5% (w/w) macrogol 15-hydroxystearate (Kolliphor HS15)) and in series [4] (aqueous solution at pH 6.0 containing 0.5% (w/w) polysorbate 80 (Tween 80)) were 20 µg/mL (≈ 34.8 µM), 0.070 % (w/w) and 0.074 % (w/w), respectively.
